Measured values reported in patent publication US6777427B2, “Tetrahydroquinoline compounds” (priority 2000, dated 2004).

Columns and labels:
[1] = system: Orchiectomized (ORX) Rats; assay: Action of increasing prostate weight in orchiectomized (ORX) rats, 8 days; format: in vivo, rat; conditions: for Weight of prostate: ORX SD rats, s.c. once daily for 8 days, DHT 10 mg/kg, Ex. 23 30 mg/kg, ventral prostate wet weight, Mean ± SD
Experimental: Testes were removed from 8-week-old male SD rats. […] In an ORX control group (Vehicle), dimethyl sulfoxide diluted with olive oil was used for the test. […] On the next day after final administration, the wet weight of the ventral prostate was measured to evaluate the AR agonistic effect of the compound of the present invention.

[2] = system: Ovariectomized (OVX) Rats; assay: Action of increasing bone mass in ovariectomized (OVX) rats, 8 weeks; format: in vivo, rat; conditions: for Bone mineral density: OVX female SD rats, right femur, s.c. once daily, 5 days weekly, 8 weeks from 4 weeks postoperatively, DHT 10 mg/kg, Ex. 23 30 mg/kg, Mean ± SD
Experimental: Action of Increasing Bone Mass in Ovariectomized (OVX) Rats
Ovariectomy was performed in 12-week-old female SD rats. […] In an OVX control group (Vehicle), dimethyl sulfoxide diluted with olive oil was used for the test. […] On the next day after final administration, the right femur was removed, and fixed overnight in a 10% neutrally buffered formalin solution.

[3] = system: Orchiectomized (ORX) Rats; assay: Action of increasing prostate weight and bone mass in orchiectomized (ORX) rats, 4 weeks; format: in vivo, rat; conditions: for Bone mineral density / Prostate weight: ORX SD rats, s.c. once daily, 5 days weekly, 4 weeks, DHT 10 mg/kg, Ex. 23 30 mg/kg, Mean ± SD; for Bone mineral density: right femur
Experimental: Orchiectomy was performed in 12-week-old male SD rats. […] In an ORX control group (Vehicle), dimethyl sulfoxide diluted with olive oil was used for the test. […] On the next day after final administration, the wet weight of the ventral prostate was measured to evaluate the AR agonistic effect of the compound of the present invention. On the next day following final administration, moreover, the right femur was removed, and fixed overnight in a 10% neutrally buffered formalin solution.

[4] = target: T1, Rat Androgen Receptors (Rat AR) (Rattus norvegicus, UniProt P15207); assay: Test for competitive binding to rat androgen receptors (3H-testosterone displacement, prostate AR fraction); conditions: RBA=100×(IC50 of hydroxyflutamide)/(IC50 of the compound)
T1 construct: from tissue; host or cells: prostate of orchiectomized 11-week-old male SD rats (100,000 x g supernatant of the homogenate)
T1 sequence (P15207 1-902): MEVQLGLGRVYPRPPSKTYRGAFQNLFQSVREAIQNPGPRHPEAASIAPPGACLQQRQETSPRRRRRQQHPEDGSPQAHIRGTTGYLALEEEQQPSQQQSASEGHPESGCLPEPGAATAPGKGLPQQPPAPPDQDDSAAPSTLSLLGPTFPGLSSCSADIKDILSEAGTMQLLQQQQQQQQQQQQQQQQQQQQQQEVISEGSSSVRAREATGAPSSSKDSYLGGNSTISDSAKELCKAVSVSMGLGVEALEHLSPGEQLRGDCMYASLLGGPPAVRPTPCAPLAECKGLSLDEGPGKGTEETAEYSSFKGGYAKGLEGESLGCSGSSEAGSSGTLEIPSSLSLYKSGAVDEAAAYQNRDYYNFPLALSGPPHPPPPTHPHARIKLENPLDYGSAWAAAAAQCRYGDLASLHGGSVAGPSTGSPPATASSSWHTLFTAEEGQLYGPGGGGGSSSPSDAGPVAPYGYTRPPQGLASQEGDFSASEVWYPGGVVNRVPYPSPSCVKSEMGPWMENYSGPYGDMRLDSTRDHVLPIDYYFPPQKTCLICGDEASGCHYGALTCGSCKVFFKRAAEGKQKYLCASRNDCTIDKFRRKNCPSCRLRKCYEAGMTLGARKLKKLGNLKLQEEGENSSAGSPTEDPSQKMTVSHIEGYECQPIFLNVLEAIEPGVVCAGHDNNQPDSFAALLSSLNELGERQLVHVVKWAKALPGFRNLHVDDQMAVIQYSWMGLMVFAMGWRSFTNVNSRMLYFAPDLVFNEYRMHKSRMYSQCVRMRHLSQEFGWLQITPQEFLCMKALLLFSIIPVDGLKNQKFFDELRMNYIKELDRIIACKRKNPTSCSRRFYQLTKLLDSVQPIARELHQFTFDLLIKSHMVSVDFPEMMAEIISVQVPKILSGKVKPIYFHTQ
Experimental: Test for Competitive Binding to Rat Androgen Receptors (Rat AR)
Preparation of rat AR fraction: Prostates were harvested into ice-cooled ET buffer (10 mM Tris, 1 mM EDTA, 5 mM DTT, 10 mM sodium molybdate, pH 7.4) 3 days after orchiectomy in 11-week-old male SD rats. The prostate was finely cut, and ET buffer was added, whereafter the mixture was homogenized using a homogenizer. The homogenate was ultracentrifuged (100,000×g, 60 min, 4° C.), and the supernatant was used as a rat AR fraction (hereinafter referred to as ARF).
Binding test: ^3H-testosterone (hereinafter referred to as ^3H-T) was diluted with ET buffer. Dihydrotestosterone (DHT) was prepared so as to have a concentration (final concentration 1 μM) 400 times the maximum concentration of ^3H-T (2.5 nM). The ^3H-T solution was added to a 1.5 ml tube containing DHT, no DHT, or the test compound with a varying concentration. Further, 200 μg ARF was added to adjust the final volume to 100 μl. The mixture was incubated for 2 hours at 4° C., and then 300 μl of a 0.05% dextran T70-1.0% activated carbon solution was added. The mixture was further incubated for 15 minutes in ice to remove the free ^3H-T. After centrifugation (4° C., 2,500 rpm, 5 min), 275 μl of the supernatant was harvested into a liquid scintillation vial, and 2 ml of clear-sol was added. The mixture was stirred, allowed to stand, and measured for ^3H radioactivity with a liquid scintillation counter. […]
a: Radioactivity of the sample incorporating the compound of the present invention (^3H-T+compound) b: Radioactivity of the sample free from the compound of the present invention (only ^3H-T: amount of total binding) c: Radioactivity of the sample incorporating DHT (^3H-T+DHT: amount of nonspecific binding) The relative binding inhibition rate (RBA: Relative Binding Affinity) was obtained from the following equation (Endocrinology 138, 863-870, 1997): […]

[5] = system: male rats; assay: AR antagonistic effect: inhibition of testosterone propionate-induced prostate weight increase; format: in vivo, rat; conditions: suggested by a Test Example; no data given
Experimental: Testes were removed from male rats. From 5 days postoperatively, testosterone propionate and the compound of the present invention were simultaneously administered once daily for one consecutive week by the subcutaneous route. On the next day after final administration, the wet weight of the ventral prostate was measured to evaluate the AR antagonistic effect of the compound of the present invention based on its inhibitory action on testosterone propionate-induced prostate weight increase.

SMILES: C[C@]12CCC(=O)C[C@@H]1CC[C@@H]1[C@@H]2CC[C@]2(C)[C@@H](O)CC[C@@H]12 [DHT, dihydrotestosterone, reference compound]
- Weight of prostate [1]: 68 ± 16 mg/body weight (100 g)
- Bone mineral density [2]: 120.8 ± 4.4 mg/cm^2
- Bone mineral density [3]: 130 ± 7 mg/cm^2
- Prostate weight [3]: 150 ± 14 mg/body weight 100 g

SMILES: CN(C)C1CC(C(C)(C)COC(=O)c2ccc(F)cc2)Nc2ccc([N+](=O)[O-])cc21 (centres unmarked) [Example 11, 4-Fluorobenzoic acid 2-(4-dimethylamino-6-nitro-1,2,3,4-tetrahydroquinolin-2-yl)-2-methyl-propyl ester]
- RBA (Relative Binding Affinity) [4]: 98

SMILES: CC(C)(O)C(=O)Nc1ccc([N+](=O)[O-])c(C(F)(F)F)c1 [Hydroxyflutamide, reference compound]
- RBA (Relative Binding Affinity) [4]: 100

SMILES: CN(C)C1CC(C(C)(C)CO)Nc2ccc([N+](=O)[O-])cc21 (centres unmarked) [Example 23, 2-(4-dimethylamino-6-nitro-1,2,3,4-tetrahydroquinolin-2-yl)-2-methylpropan-1-ol]
- Weight of prostate [1]: 52 ± 12 mg/body weight (100 g)
- Effect on prostate weight (in words) ([1]; ORX rats, consecutively administered for 8 days, 30 mg/kg s.c.): significantly increased prostate weights in comparison with the ORX control
- Bone mineral density [2]: 120.9 ± 3.9 mg/cm^2
- Effect on bone mineral density (in words) ([2]; OVX rats, administered for 8 weeks, 30 mg/kg s.c.): significantly increased the bone mineral density
- Bone mineral density [3]: 134 ± 6 mg/cm^2
- Prostate weight [3]: 78 ± 10 mg/body weight 100 g
- Effect on atrophied prostate (in words) ([3]; ORX rats, administered for 4 weeks, 30 mg/kg s.c.): restored the atrophied prostate up to the level of the normal control
- Effect on bone mineral density (in words) ([3]; ORX rats, administered for 4 weeks, 30 mg/kg s.c., vs control group): significantly increased the decreased bone mineral density

SMILES: CCCN(CCC)C1CC(C(C)(C)CO)Nc2ccc([N+](=O)[O-])cc21 (centres unmarked) [Example 33, 2-(4-Di-n-propylamino-6-nitro-1,2,3,4-tetrahydroquinolin-2-yl)-2-methylpropan-1-ol]
- AR antagonistic effect (in words) [5]: AR antagonist

SMILES: CC(C)(CO)C1CC(NCc2ccccc2)c2cc([N+](=O)[O-])ccc2N1 (centres unmarked) [Example 30, 2-(4-Benzylamino-6-nitro-1,2,3,4-tetrahydroquinolin-2-yl)-2-methylpropan-1-ol]
- RBA (Relative Binding Affinity) [4]: 370

SMILES: CC(=O)OCC(C)(C)C1CC(N(C)C)c2cc([N+](=O)[O-])ccc2N1 (centres unmarked) [Example 9, Acetic acid 2-(4-dimethylamino-6-nitro-1,2,3,4-tetrahydroquinolin-2-yl)-2-methyl-propyl ester]
- RBA (Relative Binding Affinity) [4]: 79
